This note sets out measurements from patent US5017604A, “Novel fenamic acid methyl hydroxamate derivatives having cyclooxygenase and 5-lipoxygenase inhibition” (Warner-Lambert Company, priority 1990, dated 1991).

What all share (type): cell-based
The target in assay [1] is T1, 5-lipoxygenase (Rattus norvegicus, UniProt P12527).
T1 construct: host or cells: RBL-1 (rat basophilic leukemia) cells
T1 sequence (P12527 1-673): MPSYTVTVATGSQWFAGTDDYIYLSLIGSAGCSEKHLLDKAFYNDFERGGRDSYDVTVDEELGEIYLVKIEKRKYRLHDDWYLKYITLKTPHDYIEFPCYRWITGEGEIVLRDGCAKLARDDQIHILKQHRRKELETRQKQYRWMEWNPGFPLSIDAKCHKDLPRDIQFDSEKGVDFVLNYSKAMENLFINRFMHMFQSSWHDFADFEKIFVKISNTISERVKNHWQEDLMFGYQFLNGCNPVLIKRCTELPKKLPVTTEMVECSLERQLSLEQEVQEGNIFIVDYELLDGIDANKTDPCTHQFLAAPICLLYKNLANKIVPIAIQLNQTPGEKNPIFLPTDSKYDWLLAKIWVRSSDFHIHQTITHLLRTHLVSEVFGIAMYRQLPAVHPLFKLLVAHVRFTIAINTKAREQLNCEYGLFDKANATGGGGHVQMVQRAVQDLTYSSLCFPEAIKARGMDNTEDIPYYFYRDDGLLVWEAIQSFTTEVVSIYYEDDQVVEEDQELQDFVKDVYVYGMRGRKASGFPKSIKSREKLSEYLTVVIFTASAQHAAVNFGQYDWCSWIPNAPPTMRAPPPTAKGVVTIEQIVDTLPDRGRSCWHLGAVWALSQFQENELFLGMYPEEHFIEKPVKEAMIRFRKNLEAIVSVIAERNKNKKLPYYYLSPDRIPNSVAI
Kind of assay: ARBL whole cell 5-lipoxygenase assay (RBL-1 cells, LTB4 formation by RIA). Conditions: RBL-1 whole cells; for inhibition at 10 µM / inhibition at 16 µM: read-out: ARBL % inhibition at the given micromolar concentration (LTB4 formation); for IC50: A23187 5 μM, read-out: ARBL IC50 (50% inhibition of LTB4 formation). How it is done: (§1) ARBL/ARBC Whole Cell 5-Lipoxygenase and Cyclooxyqenase Assays
(§2) The rat basophilic leukemia cell line (RBL-1) was obtained from the American Type Culture Collection (Rockville, Md.).
(§3) Radioimmunoassay (RIA) kits for LTB4 and PGF2α determination were obtained from Amersham (Arlington Heights, Ill.) and Seragen (Boston, Mass.), respectively.
(§4) RBL-1 cells are grown in suspension culture in Eagle's minimum essential medium supplemented with 12% fetal bovine serum at 37° C. in an incubator supplied with air-5% carbon dioxide. Cells are harvested by centrifugation. They are washed with cold phosphate buffered saline pH 7.4 (PBS; NaCl, 7.1 g; Na2 HPO4, 1.15 g; KH2 PO4, 0.2 g; and KCl, 0.2 g/L). Cells are finally suspended in PBS containing 1.0 mM calcium at a density of 2×10^6 cells/mL. Cells are incubated with and without test agent (in DMSO) (1% DMSO is without effect on arachidonic acid metabolism) for 10 minutes at room temperature. Calcium inonophore A23187 (5 μM) is added and cells are incubated for 7 minutes at 37° C. The reaction is stopped by chilling the tubes on ice for 10 minutes. Cells are separated by centrifugation and the supernatant is stored at -20° . Aliquots (100 μL) are analyzed for LTB4 and PGF2α using radioimmunoassay kits as provided by the supplier.
(§5) Table 1 contains biochemical data obtained from this whole cell assay as IC50 s which are calculated as the concentration of test compound causing 50% inhibition of LTB4 or PGF2α formation or in percent inhibition at the given micromolar concentration. N at 10 or 16 is not active at 10 μmolar or 16 μmolar.

Assay [2] has as its target T2, cyclooxygenase (Rattus norvegicus, UniProt Q63921).
T2 construct: host or cells: RBL-1 (rat basophilic leukemia) cells
T2 sequence (Q63921 27-602): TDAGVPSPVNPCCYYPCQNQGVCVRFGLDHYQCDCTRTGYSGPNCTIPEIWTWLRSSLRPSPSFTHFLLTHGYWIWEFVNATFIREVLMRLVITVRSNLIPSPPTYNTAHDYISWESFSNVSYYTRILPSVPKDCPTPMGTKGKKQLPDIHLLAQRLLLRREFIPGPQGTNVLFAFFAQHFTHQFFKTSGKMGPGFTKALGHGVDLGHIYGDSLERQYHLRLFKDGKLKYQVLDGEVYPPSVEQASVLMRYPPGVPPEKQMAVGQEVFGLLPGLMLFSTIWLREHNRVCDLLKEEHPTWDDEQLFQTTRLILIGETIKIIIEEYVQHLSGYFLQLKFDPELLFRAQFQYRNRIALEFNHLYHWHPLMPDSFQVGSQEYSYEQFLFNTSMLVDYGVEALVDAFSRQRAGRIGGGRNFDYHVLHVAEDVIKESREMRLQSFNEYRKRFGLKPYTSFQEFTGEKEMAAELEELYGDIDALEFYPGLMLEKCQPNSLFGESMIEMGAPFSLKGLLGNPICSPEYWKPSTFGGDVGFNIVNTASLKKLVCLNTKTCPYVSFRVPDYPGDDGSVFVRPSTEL
Kind of assay: ARBC whole cell cyclooxygenase assay (RBL-1 cells, PGF2α formation by RIA). More on the design: key: N @ 10 μmolar is not active at 10 μmolar. Conditions: RBL-1 whole cells; @ 10 μM. How it is done:
as §1, §2, §3
as §4, with “supplier. […]” for “supplier.”

In assay [3] the target is T2, cyclooxygenase. The assay is described as above. Conditions: RBL-1 whole cells; for IC50: A23187 5 μM, read-out: ARBC IC50 (50% inhibition of PGF2α formation). How it is done:
as §1, §2, §3, §4, §5

Assay [4] addresses T2, cyclooxygenase. The description is as above. More on the design: key: N @ 16 μmolar is not active at 16 μmolar. Conditions: RBL-1 whole cells; @ 16 μM. How it is done: as §1, §2, §3, §4, §5
Assay [5] addresses T1, 5-lipoxygenase. Kind of assay: ARBL whole cell 5-lipoxygenase assay (RBL-1 cells, LTB4 formation by RIA). Set-up: key: N @ 10 μmolar is not active at 10 μmolar. Conditions: RBL-1 whole cells; @ 10 μM. How it is done:
as §1, §2, §3, §4, §5

Assay [6] deals with T1, 5-lipoxygenase. Described as above. More on the design: key: N @ 16 μmolar is not active at 16 μmolar. Conditions: RBL-1 whole cells; @ 16 μM. How it is done:
as §1, §2, §3, §4, §5

[7] abbreviates: read-out: ARBC % inhibition at the given micromolar concentration (PGF2α formation).

By IC50 is commonly meant the point on the concentration scale where inhibition reaches its midpoint.

Regarding `COC(=O)c1ccccc1Nc1cccc(C(C)N(O)C(C)=O)c1Cl` (stereo not drawn) [Example 33, 2-[[3-[1-(acetylhydroxyamino)ethyl]-2-chlorophenyl]amino]benzoic acid methyl ester], the inhibition at 10 µM on 5-lipoxygenase [1] was determined as 100%. At cyclooxygenase [2], the “ARBC activity (N = not active)” value is on record as “N”.

`COC(=O)c1ccccc1Nc1cccc(CN(O)C(C)=O)c1C` [Example 34]: the half-maximal inhibitory concentration (IC50) on 5-lipoxygenase [1] was less than 62.5 nM; at cyclooxygenase [3], 10000 nM.

For the molecule `COC(=O)c1ccccc1Nc1cccc(C(C)N(O)C(C)=O)c1C` (stereo not drawn) [Example 35], at 5-lipoxygenase [1], the inhibition at 10 µM stood at 100%. Moreover, the “ARBC activity (N = not active)” value on cyclooxygenase [2] is reported as “N”.

Regarding `COC(=O)c1ccccc1Nc1c(C)ccc(C(C)N(O)C(C)=O)c1C` (stereo not drawn) [Example 36], the inhibition at 16 µM at 5-lipoxygenase [1] was 100%. Moreover, on cyclooxygenase [4], the “ARBC activity (N = not active)” value was “N”.

Regarding `COC(=O)c1ccccc1Nc1cccc(CN(O)C(C)=O)c1Cl` [Example 37], the results for the IC50 on 5-lipoxygenase [1] and on cyclooxygenase [3] were 580 nM and 4300 nM, respectively.

As for `COC(=O)c1ccccc1Nc1c(Cl)ccc(CN(O)C(C)=O)c1Cl` [Example 38], the values for the half-inhibitory concentration (IC50) at 5-lipoxygenase [1] and at cyclooxygenase [3] were 360 nM and 6000 nM, respectively.

In the case of `COC(=O)c1ccccc1Nc1c(Cl)ccc(C(C)N(O)C(C)=O)c1Cl` (stereo not drawn) [Example 39], the inhibition at 10 µM at 5-lipoxygenase [1] is 100%; at cyclooxygenase [3] (setting [7]), 52%.

In the case of `CCOC(=O)N(O)Cc1cccc(Nc2ccccc2C(=O)OC)c1Cl` [Example 40, 2-[[2-chloro-3-[[(ethoxycarbonyl)hydroxyamino]methyl]phenyl]amino]benzoic acid, methyl ester], the IC50 is 210 nM at 5-lipoxygenase [1] and 670 nM on cyclooxygenase [3].

For the molecule `CCOC(=O)N(O)Cc1cccc(Nc2ccccc2C(=O)OC)c1C` [Example 41, 2-[[3-[[(Ethoxycarbonyl)hydroxyamino]methyl]-2-methylphenyl]amino]benzoic acid methyl ester], the IC50 worked out at 390 nM on 5-lipoxygenase [1] and 8700 nM at cyclooxygenase [3].

For `CCOC(=O)N(O)Cc1ccc(Cl)c(Nc2ccccc2C(=O)OC)c1Cl` [Example 42], the values for the half-maximal inhibitory concentration (IC50) on 5-lipoxygenase [1] and on cyclooxygenase [3] were 330 nM and 3700 nM, respectively.

As for `CCOC(=O)N(O)C(C)c1ccc(C)c(Nc2ccccc2C(=O)OC)c1C` (stereo not drawn) [Example 43], the inhibition at 16 µM at 5-lipoxygenase [1] came to 100%. Besides, the “ARBC activity (N = not active)” value on cyclooxygenase [4] is reported as “N”.

Turning to `CNC(=O)N(O)Cc1cccc(Nc2ccccc2C(=O)OC)c1C` [Example 44, 2-[[3-[[Hydroxy[(methylamino)carbonyl]amino]methyl]-2-methylphenyl]amino]benzoic acid methyl ester], the results for the inhibition at 16 µM at 5-lipoxygenase [1] and at cyclooxygenase [3] (setting [7]) were greater than 95% and 43%, respectively.

Take `CNC(=O)N(O)Cc1cccc(Nc2ccccc2C(=O)OC)c1Cl` [Example 46, 2-[[2-Chloro-3-[[hydroxy[(methylamino)carbonyl]amino]methyl]phenyl]amino]benzoic acid methyl ester]: the 50% inhibitory concentration (IC50) at 5-lipoxygenase [1] was found to be 360 nM; at cyclooxygenase [3] it was 4700 nM.

Take `CC(=O)N(O)C(C)c1cccc(Nc2ccccc2C(=O)O)c1Cl` (stereo not drawn) [Example 47]: the “ARBL activity (N = not active)” value on 5-lipoxygenase [5] was “N”. The inhibition at 10 µM at cyclooxygenase [3] (setting [7]) worked out at 79%.

For `CC(=O)N(O)Cc1cccc(Nc2ccccc2C(=O)O)c1C` [Example 48], on 5-lipoxygenase [5], the “ARBL activity (N = not active)” value is “N”. Also, the IC50 on cyclooxygenase [3] was 1900 nM.

Regarding `CCOC(=O)N(O)Cc1cccc(Nc2ccccc2C(=O)O)c1C` [Example 49], the “ARBL activity (N = not active)” value on 5-lipoxygenase [6] is “N”. In addition, the inhibition at 0.25 µM on cyclooxygenase [3] (@ 0.25 μM, read-out: ARBC % inhibition at the given micromolar concentration (PGF2α formation)) came out at 67%.

With `CNC(=O)N(O)Cc1cccc(Nc2ccccc2C(=O)O)c1C` [Example 50], at 5-lipoxygenase [6], the “ARBL activity (N = not active)” value is listed as “N”. Further, the inhibition at 16 µM on cyclooxygenase [3] (setting [7]) is 56%.

Turning to `CC(=O)N(O)C(C)c1cccc(Nc2ccccc2C(=O)O)c1C` (stereo not drawn) [Example 51], the “ARBL activity (N = not active)” value at 5-lipoxygenase [6] is given as “N”. Besides, the inhibition at 10 µM on cyclooxygenase [3] (setting [7]) was determined as 70%.

With `CC(=O)N(O)C(C)c1ccc(C)c(Nc2ccccc2C(=O)O)c1C` (stereo not drawn) [Example 52], the “ARBC activity (N = not active)” value on cyclooxygenase [4] is “N”. The “ARBL activity (N = not active)” value on 5-lipoxygenase [6] is listed as “N”.

For `CCOC(=O)N(O)C(C)c1ccc(C)c(Nc2ccccc2C(=O)O)c1C` (stereo not drawn) [Example 53], the “ARBL activity (N = not active)” value on 5-lipoxygenase [6] was “N”. Moreover, at cyclooxygenase [3] (setting [7]), the inhibition at 16 µM was 53%.

On to `CC(=O)N(O)Cc1cccc(Nc2ccccc2C(=O)O)c1Cl` [Example 54], for which the “ARBL activity (N = not active)” value at 5-lipoxygenase [5] was “N”. The inhibition at 10 µM on cyclooxygenase [3] (setting [7]) turned out to be 87%.

With `CC(=O)N(O)Cc1ccc(Cl)c(Nc2ccccc2C(=O)O)c1Cl` [Example 55], the “ARBL activity (N = not active)” value on 5-lipoxygenase [5] is “N”. For the same molecule, the inhibition at 10 µM at cyclooxygenase [3] (setting [7]) is 83%.

For `CCOC(=O)N(O)Cc1ccc(Cl)c(Nc2ccccc2C(=O)O)c1Cl` [Example 56], the figures for the inhibition at 16 µM at 5-lipoxygenase [1] and at cyclooxygenase [3] (setting [7]) were 47% and 89%, respectively.

As for `CC(=O)N(O)C(C)c1ccc(Cl)c(Nc2ccccc2C(=O)O)c1Cl` (stereo not drawn) [Example 57], on 5-lipoxygenase [5], the “ARBL activity (N = not active)” value is listed as “N”. In addition, the inhibition at 10 µM at cyclooxygenase [3] (setting [7]) turned out to be 53%.
